Measured values from patent US10821079B2, “PKC activators and combinations thereof” (Cognitive Research Enterprises, Inc., priority 2011, dated 2020).

What was measured:
[1] = cited from earlier work
[2] = Water maze spatial learning and memory task, visible platform test; assay type: in vivo, Wistar rats
Method: Water maze spatial learning and memory task (2 training trials/day for 4 days) was used to evaluate effects of oral DCPLA-ME on learning and memory in rats. A visible platform test was conducted after the end of the experiments to evaluate whether the treatment might result in an altered sensorimotor activity and escape motivation.
Male adult Wistar rats (200-250 g) were housed in a temperature-controlled (20-24° C.) room for a week, allowed free access to food and water, and kept on a 12-h light/dark cycle. Rats were anesthetized with sodium pentobarbital (60 mg/kg i.p) and placed in a stereotactic apparatus (Kopf Instruments, Tujunga, Calif.). The core temperature of rats was monitored and kept constant (38.0±0.5° C.) with warming light and pad. Two stainless steel guide cannulas were placed with the tips positioned at the coordinates (anterior-posterior, 0.5 mm; lateral, 1.5 mm; horizontal, 3.2 mm), under aseptic conditions. At the end of surgery and under appropriate anesthesia, rats received (s.c.) banamine (1 mg/kg) and ketoprofen (5 mg/kg) in lactate/Ringer's solution. A 7-day recovery period was allowed before any further experimentation.
On the first day of experiments, all rats were randomly assigned to different groups and swam for 2 min in a 1.5-(diameter)×0.6-m (depth) pool (22±1° C.). On the following day, rats were trained in a two-trial per day task for four consecutive days. Each training trial lasted for up to 2 min, during which rats learned to escape from water by finding a hidden platform that was placed at a fixed location and submerged 1 cm below the water surface. The navigation of the rats was tracked by a video camera. The escape latency and the route of rats' swimming across the pool to the platform were recorded. The quadrant test (1 min) was performed after removing the platform, 24 hr after the last training trial.
DCPLA-ME was administered at either 5.3 or 16.0 mg/kg (intragastric, 8 doses total of 2/week with the first 6 doses before the water maze task and the seventh and eighth doses 0.5 hr after the second trial of the first and third training day).

PKC-ε [3] = assay: PKC-ε mRNA by RT-PCR in primary rat hippocampal neurons; assay type: cell-based; settings: controls and ASPD-treated cells
Method: RNA was isolated from the cells using Trizol reagent (Invitrogen, USA) following the manufacturer's protocol. Briefly, 5 μg of total RNA was reverse transcribed using oligo (dT) and Superscript III (Invitrogen, USA) at 50° C. for 1 hr. Two μl of the cDNA product was amplified using primers for PKC-ε (Forward Primer—[…], Reverse primer—[…]), and β-tubulin (Forward Primer—[…], Reverse primer—[…]) (Origene, Rockville, Md.) for 25 cycles following standard PCR protocols and 55° C. annealing temperature. The PCR amplicons were analyzed in an E-Gel (Invitrogen, USA). The gel image was documented using a Fuji Image gel scanner (FLA-9000, Fuji Film) and densitometric quantification was performed using the IMAL software (Blanchette Rockefeller Neurosciences Institute, Morgantown, W. Va.). Data were represented as normalized ratio of PKC-ε OD (Optical Density) against β-tubulin OD for three independent experiments.
Primary neurons were treated with ASPD and/or DCPLA-ME. PKC-ε mRNA was quantified by RT-PCR as described above. RNA prepared from control and treated cultured primary rat hippocampal neurons were isolated and reverse transcribed. Individual cDNA was amplified for PKC-ε and β-actin. PKC-ε expression was normalized to β-actin.

PKC-ε [4] = assay: PKC-ε level in primary neurons (immunofluorescence, Western Blot); assay type: cell-based, rat; settings: ASPD-treated primary neurons, 100 nM DCPLA-ME
Method: Cells were harvested in homogenizing buffer containing 10 mM Tris-Cl (pH 7.4), 1 mM PMSF (phenylmethylsulfonyl fluoride), 1 mM EGTA, 1 mM EDTA, 50 mM NaF, and 20 μM leupeptin and were lysed by sonication. The homogenate was centrifuged at 100,000×g for 15 min at 4° C. to obtain the cytosolic fraction (supernatant) and membrane (pellet). The pellet was resuspended in the homogenizing buffer by sonication. Protein concentration was measured using the Coomassie Plus (Bradford) Protein Assay kit (Pierce, USA). Following quantification, 20 μg of protein from each sample was subjected to SDS-PAGE analysis in 4-20% gradient Tris-Glycine gel (Invitrogen, USA). The separated protein was then transferred to nitrocellulose membrane. The membrane was blocked with BSA at room temperature for 15 min and was incubated with primary antibody over night at 4° C. After the incubation, it was washed three times with TBS-T (Tris Buffered saline-Tween 20) and further incubated with alkaline phosphatase conjugated secondary antibody (Jackson Immunoresearch Laboratories, USA) at 1:10,000 dilution for 45 min. The membrane was finally washed three times with TBS-T and developed using the 1-step NBT-BCIP substrate (Pierce, USA). Western Blot was imaged in the ImageQuant RT-ECL (GE Life Sciences, Piscataway, N.J.) and densitometric quantification was performed using the IMAL software (Blanchette Rockefeller Neurosciences Institute, Morgantown, W. Va.). For translocation assays, PKC activation was represented as the percentage of total protein in the membrane (membrane/cytosol+membrane).
Cells were grown in two chambered slides (Nunc, USA) at low density. For immunofluorescence staining, the cells were washed with PBS (pH 7.4) and fixed with 4% paraformaldehyde for 4 min. Following fixation, the cells were blocked and permeabilized with 5% serum and 0.3% Triton X 100 in 1×PBS for 30 min. […] Six individual fields at 63× oil lens magnification were analyzed for the mean fluorescence intensity (MFI) in each channel. […]

SMILES | toxicity ([1]; at 20 μg/week) | dose that may be associated with muscle pain ([1]; in vivo) | memory retention, target quadrant ratio vs control ([2]; 5.3 mg/kg intragastric) | water maze learning, escape latency vs control ([2]; 5.3 mg/kg intragastric) | water maze learning, escape latency vs control ([2]; 16.0 mg/kg intragastric) | visible platform test, sensorimotor ability and escape motivation ([2]; oral) | PKC-ε transcript levels (in words) (PKC-ε [3]) | PKC-ε protein level (Western Blot, in words) (PKC-ε [4])
CCC/C=C/C=C/C(=O)O[C@H]1/C(=C/C(=O)OC)C[C@H]2C[C@H]([C@@H](C)O)OC(=O)C[C@H](O)C[C@@H]3C[C@H](OC(C)=O)C(C)(C)C(O)(C[C@@H]4C/C(=C/C(=O)OC)C[C@H](/C=C/C(C)(C)[C@]1(O)O2)O4)O3 [Bryostatin-1] | no toxicity | more than 35 μg/week | – | – | – | – | – | –
CCCCCC1CC1CC1CC1CCCCCCCC(=O)OC (centres unmarked) [DCPLA-ME, methyl 8-(2-((2-pentylcyclopropyl)methyl)cyclopropyl)octanoate] | – | – | but not between the 5.3 mg/kg dose and control groups | did not reach a significant level | improved learning performance | did not affect rats' sensorimotor ability and motivation for an escape | increased PKC-ε transcript levels | restored the PKC-ε protein level to normal
